These results are taken from paper PMC7312539, “Homology Modeling of the Human P-glycoprotein (ABCB1) and Insights into Ligand Binding through Molecular Docking Studies” (International Journal of Molecular Sciences, 2020).

The target of this data set is efflux pump P-gp (Homo sapiens, UniProt P08183). The following applies: Figure 11; for Effect on the rate of excretion of rhodamine 123 (R123) out of Caco-2 cells / interaction with P-gp: Caco-2 cells loaded with 10 μM R123, compared to control DMSO.
Chain of efflux pump P-gp (P08183 whole entry): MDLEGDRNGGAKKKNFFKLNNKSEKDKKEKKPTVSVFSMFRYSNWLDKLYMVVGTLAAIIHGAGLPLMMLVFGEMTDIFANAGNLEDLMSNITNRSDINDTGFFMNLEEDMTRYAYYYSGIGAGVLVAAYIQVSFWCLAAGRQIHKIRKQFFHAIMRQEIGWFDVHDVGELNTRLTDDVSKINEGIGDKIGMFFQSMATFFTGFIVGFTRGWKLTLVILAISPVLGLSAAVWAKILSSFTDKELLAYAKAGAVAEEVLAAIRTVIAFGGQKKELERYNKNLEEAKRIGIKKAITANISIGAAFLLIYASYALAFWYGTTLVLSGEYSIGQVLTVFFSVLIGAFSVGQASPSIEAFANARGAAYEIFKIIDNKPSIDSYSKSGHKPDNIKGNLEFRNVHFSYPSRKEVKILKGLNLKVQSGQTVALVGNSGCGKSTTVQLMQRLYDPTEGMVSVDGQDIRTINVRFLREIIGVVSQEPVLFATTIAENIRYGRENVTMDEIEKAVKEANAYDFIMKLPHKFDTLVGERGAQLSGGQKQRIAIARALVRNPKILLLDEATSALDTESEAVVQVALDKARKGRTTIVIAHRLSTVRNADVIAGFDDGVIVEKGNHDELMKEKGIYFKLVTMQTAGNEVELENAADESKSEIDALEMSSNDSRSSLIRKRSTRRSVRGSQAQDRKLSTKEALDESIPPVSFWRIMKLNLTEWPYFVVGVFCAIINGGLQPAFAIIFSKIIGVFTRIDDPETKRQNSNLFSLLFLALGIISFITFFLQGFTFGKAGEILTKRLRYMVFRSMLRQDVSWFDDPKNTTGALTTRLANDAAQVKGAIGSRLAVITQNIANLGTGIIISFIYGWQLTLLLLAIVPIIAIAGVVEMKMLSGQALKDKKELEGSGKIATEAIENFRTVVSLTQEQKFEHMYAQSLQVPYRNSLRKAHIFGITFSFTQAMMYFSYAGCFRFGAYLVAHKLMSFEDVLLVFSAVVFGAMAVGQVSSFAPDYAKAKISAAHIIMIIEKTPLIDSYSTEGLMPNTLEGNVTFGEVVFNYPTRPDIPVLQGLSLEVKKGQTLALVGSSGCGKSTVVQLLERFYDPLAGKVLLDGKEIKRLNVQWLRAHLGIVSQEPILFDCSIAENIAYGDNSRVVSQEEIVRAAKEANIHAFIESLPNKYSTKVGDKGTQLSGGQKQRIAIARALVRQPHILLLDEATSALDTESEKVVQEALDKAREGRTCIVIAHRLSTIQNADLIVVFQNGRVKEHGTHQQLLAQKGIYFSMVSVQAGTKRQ

Method: Results are expressed as percentage compared to the rate of excretion of R123 in the absence of drug (i.e control DMSO). Error bars: SD; verapamil: positive control; diazepam: negative control.
Shortly, Caco-2 cells were washed with HEPES-buffered Ringer’s (RH) solution (NaCl 150 mM, KCl 5.2 mM, CaCl2 2.2 mM, MgCl2 0.2 mM, NaHCO3 6 mM, Glucose 2.8 mM, HEPES 5 mM, water for injection), pH = 7.4 and incubated for 120 min with 10 μM R123. After incubation, cells were washed with RH and incubated with test compounds for one hour during which the rate out (Kout) of R123 (λex = 485 nm and λem = 538 nm) was monitored every 2 minutes with a microplate fluorescence reader (Fluoroskan Ascent FL, Thermo Labsystems, Issy-Les-Moulineaux, France) at 37 °C, after which the cell viability was assessed using MTT cytotoxicity assay kit. Rhodamine Kout was calculated as the slope of the curve of the cumulative R123 fluorescence against the time. Verapamil was used as a positive control and diazepam as negative control.

In the case of `C[n+]1ccc(-c2cc[n+](C)cc2)cc1` [PQ, paraquat], under “compound at 50 µM, Caco-2 cells”, the “Interference with the P-gp mediated efflux of R123 out of Caco-2 cells” value is given as “do not interfere”.

With `CCCC(CCC)C(=O)O` [VPA, valproic acid], the “Effect on the rate of excretion of rhodamine 123 (R123) out of Caco-2 cells / interaction with P-gp” value (shortened to “Effect … of Caco-2 cells / interaction with P-gp”) was “not transported by P-gp”.

In the case of `CS(=O)(=O)OCCCCOS(C)(=O)=O` [BU, busulfan], the “Effect … of Caco-2 cells / interaction with P-gp” value is “not transported by P-gp”.

In the case of `NCCC(O)(P(=O)(O)O)P(=O)(O)O` [APD, pamidronate], the “Effect … of Caco-2 cells / interaction with P-gp” value is reported as “did not show any interaction”.
